Laboratory results taken from US9901648B2, “Stabilization of biomolecules using sugar polymers” (THE REGENTS OF THE UNIVERSITY OF CALIFORNIA, priority 2012, dated 2018).

Legend:
hen egg white lysozyme [1] = biological target: T1, hen egg white lysozyme (Gallus gallus, UniProt P00698); test: Lyophilization stability activity assay (10 lyophilization cycles, EnzChek lysozyme activity); assay type: biochemical
T1 construct: reconstituting hen egg white lysozyme (0.1 mg/mL, DPBS, pH 7.4) as received without further purification; purchased Sigma-Aldrich; host or cells: hen egg white
Experimental: (§1) Lysozyme-glycopolymer conjugate (Lyz-6). To a 1.5 mL Lo-Bind® centrifuge tube was added thiopropionyl hen egg white lysozyme (LyzSH) (70 μL, 10 mg/mL, DPBS, pH 8.0) and 6 (16 mg, 0.71 μmol, 15 eq) and the entire reaction was diluted to a final volume of 500 μL (DPBS, pH 8.0) before storage at 4° C. for 3 hours. The resulting mixture was purified by FPLC (50 mM PB, 150 mM NaCl, pH 7.4), fractions were concentrated by centriprep ultrafiltration (MWCO 3 kDa, DPBS, pH 7.4) and stored at 4° C. Samples were diluted 5 fold before the EnzChek® lysozyme activity assay was employed to measure fraction activity. In a typical assay 50 μL of diluted sample was incubated with 50 μL of Micrococcus luteus labeled with FITC (1 mg/mL) at 37° C. for 1 hour. Subsequently, fluorescence of lysed cell membrane and thus lysozyme activity was measured as FITC fluorescence (abs 480 nm/em 530 nm) and quantified relative to known standards.
Wild-type lysozyme was prepared by reconstituting hen egg white lysozyme (0.1 mg/mL, 1 eq, DPBS, pH 7.4) as received without further purification. Samples were further diluted to 0.021 mg/mL (1 kU/mL) in 20 μL aliquots prior to application of lyophilization or thermal insults.
Wild-type lysozyme samples mixed with glyco-polymer were prepared by adding trehalose polymer (Poly 5-8, 1 or 100 eq relative to lysozyme) to a solution of lysozyme (0.1 mg/mL, DPBS, pH 7.4) before storage at 4° C. Samples were further diluted to a lysozyme concentration of 0.021 mg/mL (1 kU/mL) in 20 μL aliquots prior to application of lyophilization or thermal insult.
Wild-type lysozyme samples mixed with trehalose were prepared by adding trehalose (1 or 100 eq relative to the number of trehalose monomer units in Poly 5-8) to a solution of lysozyme (0.1 mg/mL, DPBS, pH 7.4) before storage at 4° C. […]
(§2) Wild-type lysozyme was prepared by reconstituting hen egg white lysozyme (0.1 mg/mL, DPBS, pH 7.4) as received without further purification. […] Statistics were calculated utilizing the Students t test; % confidence as +/−=t*(standard deviation)/(number of trials)^(½) with p<1−% confidence/100.

β-galactosidase (β-Gal) = conditions: lyophilization cycles; β-Gal 0.1 mg/mL; 7500 equiv of trehalose
Experimental: The stabilization of β-galactosidase (β-Gal) was also tested after multiple lyophilization cycles. β-Gal is known to be easily denatured by lyophilization or freeze-thaw cycles (Pikal-Cleland and Capenter, 2001). Activity of β-Gal was measured by reacting with o-nitrophenyl-β-D-galactoside (ONPG), which releases o-nitrophenol, a yellow color product that absorbs light at 420 nm.
0.4 mg/mL P3-Gal solution was prepared in pH 7.0 10 mM sodium phosphate buffer. 50 μL aliquots of β-Gal solution were mixed with 150 μL of buffer or 150 μL of polymer (100 equiv) or trehalose (7500 equiv) in H2O to result 0.1 mg/mL protein solution. Aliquots of each sample were frozen by immersion in liquid nitrogen before lyophilization. The samples were lyophilized for 12 h for one cycle under 1 mbar. After each cycle 200 μL of H2O was added and the lyophilization repeated for 3 cycles and 4 cycles. The control was stored in 4° C. until the activity assay was performed. The assay includes 6 repeats by reacting with o-nitrophenyl-β-D-galactoside (ONPG).

[2] = test system: horseradish peroxidase (HRP); test: Horseradish peroxidase stabilization at 70° C. (TMB activity); assay type: biochemical; conditions: 70° C. for 30 min; HRP 75 μg/mL; 7500 equivalent of trehalose
Experimental: The activity of horseradish peroxidase (HRP) after exposure to a temperature of 70° C. for 30 minutes was tested, and the results are provided in FIG. 28. The activity of HRP was tested through reaction with 3,3′,5,5′-tetramethylbenzidine (TMB), which produces a blue by-product. HRP samples were prepared without any additive, with 100 equivalent of P1-P4, or 7500 equivalent of trehalose, which is equal to the trehalose in the P1 sample. Heated samples were then tested for HRP reactivity and the percent original activities were calculated using same concentration of HRP without heating and additive (FIG. 28). After heating, HRP in solution without any additive, only 46% of the original activity was observed. […] The same concentration of trehalose maintained only 80% of HRP activity. All samples were repeated six times and their p value compared with no additive were <0.001.
Horseradish Peroxidase Stabilized by P1-P4 at 70° C. […] Stock solutions of 100 equiv of P1, P2, P3 and P4 and 7500 equiv of trehalose were also prepared in the same buffer. 2 μL aliquots of HRP solution were mixed with 2 μL aliquots of each polymer and trehalose solution to give final concentration of 75 μg/mL HRP or with only buffer. […] The assay was repeated 6 times following the know procedure with tetramethylbenzemidine (TMB).

[3] = biological target: Recombinant Human Insulin (Homo sapiens, UniProt P01308); test: Insulin stabilization at 90° C. (native gel); conditions: 90° C. for 1 h; insulin 1 mg/mL; 750 equiv of trehalose
Experimental: Prepared P1, P2, P3, and the same concentration of trehalose as an additive were tested for stabilization of insulin against heating under 90° C. for 1 h. After heating all the samples were loaded on the native gel (FIG. 30). Insulin without any additive was denatured and the band was almost gone in native gel. […] The MALDI-TOF data provides that insulin, originally 5.8 kDa, denatures into mainly two fragments after heating (data not shown). This is due to the breakage of two disulfide bridges liking a and β chain of insulin.
Insulin was dissolved in pH 7.4 D-PBS buffer (1 mg/mL). The samples were prepared by adding 10 equiv of P1, P2, and P3 or 750 equiv of trehalose into the insulin solution. […] Other samples with polymers or trehalose were heated as 90° C. for 1 h and ran through the native gel.

hen egg white lysozyme [4] = biological target: T1, hen egg white lysozyme; test: Thermo-stability (heat burden) assay, 90° C., EnzChek lysozyme activity; assay type: biochemical
Experimental: as §1, with “standards. […]” for “standards.”
as §2, with “received and was stored” for “received”, “purification at 4° C. in 20 μL aliquots. […] Activities of stressed samples were measured relative to identical aliquots that were not exposed to heat.” for “purification.”

glucose oxidase (GOX) = glucose oxidase (GOX) (Aspergillus niger, UniProt P13006); test: Glucose oxidase stabilization at 50° C. (Amplex Red assay); assay type: biochemical; conditions: 50° C. for 30 min; GOX 0.1 mg/mL; 7500 equivalent of trehalose
Experimental: Trehalose glycopolymers P1 through P4 were also tested for glucose oxidase (GOX) stabilization against 50° C. heat for 30 min. The activity of GOX was evaluated using Amplex® Red Glucose/Glucose Oxidase Assay Kit (Invitrogen). GOX reacts with D-glucose to form H2O2, which can then react with the Amplex® in the presence of horseradish peroxidase (HRP) to generate resorufin and can be detected by fluorescence. GOX samples were prepared without any additive, with 100 equivalent of P1-P4, and 7500 equivalent of trehalose, which is equal to the number of repeating units in the P1. All samples were heated to 50° C. for 30 min and repeated six times. Heated samples were then tested for GOX reactivity and percent original activities were calculated using same concentration of GOX without heating and additive (FIG. 29).
2 μL aliquots of GOX solution were mixed with 2 μL aliquots of each polymer and trehalose solution or buffer only to give the final concentration of 0.1 mg/mL GOX. […] Activity was measured using Amplex® Red Glucose/Glucose Oxidase Assay kit following the product manual procedures.

T1 sequence (P00698 19-147): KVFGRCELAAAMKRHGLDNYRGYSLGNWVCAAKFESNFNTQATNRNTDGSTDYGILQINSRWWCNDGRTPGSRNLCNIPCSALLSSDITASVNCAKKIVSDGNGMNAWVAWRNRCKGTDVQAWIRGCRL
Chain of Recombinant Human Insulin (P01308 25-54 limits assumed): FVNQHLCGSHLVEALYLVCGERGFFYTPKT
Chain of Recombinant Human Insulin (P01308 90-110 limits assumed): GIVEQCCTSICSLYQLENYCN
Chain of glucose oxidase (GOX) (P13006 17-605, species assumed): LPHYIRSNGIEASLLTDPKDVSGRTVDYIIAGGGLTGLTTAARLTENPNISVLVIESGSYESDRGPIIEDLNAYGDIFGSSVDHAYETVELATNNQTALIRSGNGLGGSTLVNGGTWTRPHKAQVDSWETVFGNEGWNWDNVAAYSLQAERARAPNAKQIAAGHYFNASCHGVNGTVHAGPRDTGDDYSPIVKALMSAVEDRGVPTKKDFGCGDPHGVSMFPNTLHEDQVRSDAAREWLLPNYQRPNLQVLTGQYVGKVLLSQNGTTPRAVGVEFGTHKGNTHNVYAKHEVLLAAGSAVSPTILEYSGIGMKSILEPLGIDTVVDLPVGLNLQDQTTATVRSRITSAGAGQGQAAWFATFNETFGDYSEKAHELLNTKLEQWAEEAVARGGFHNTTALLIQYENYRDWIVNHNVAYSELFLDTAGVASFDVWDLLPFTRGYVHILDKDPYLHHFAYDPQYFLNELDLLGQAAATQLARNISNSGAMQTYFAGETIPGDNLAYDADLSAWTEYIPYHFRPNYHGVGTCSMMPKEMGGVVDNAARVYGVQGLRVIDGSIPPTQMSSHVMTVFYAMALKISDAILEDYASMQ

Row | Compound | retention of lysozyme activity with added trehalose (hen egg white lysozyme [1]; trehalose at equivalent concentrations to that in the 100-fold polymers) | β-Gal original activity maintained (β-galactosidase (β-Gal)) [%] | percent original HRP activity [2] [%] | insulin band on native gel after heating [3] | activity retention with added trehalose (hen egg white lysozyme [4]; 90° C. for 1 hour, highest trehalose concentration (100 eq Poly8 monomer units)) [%] | percent original GOX activity (glucose oxidase (GOX)) [%] | activity relative to unexposed sample stored at 4° C. (hen egg white lysozyme [1]; 0.1 mg/mL, DPBS pH 7.4, conjugate or protein alone, no additive) [%] | retention of original activity (hen egg white lysozyme [1]; lysozyme 0.021 mg/mL (1 kU/mL), conjugate or protein alone) [%] | remaining activity after heat burden (hen egg white lysozyme [4]; 90° C. for 3 hours, 0.1 mg/mL, conjugate or protein alone)
1 | OC[C@H]1O[C@H](O[C@H]2O[C@H](CO)[C@@H](O)[C@H](O)[C@H]2O)[C@H](O)[C@@H](O)[C@@H]1O [trehalose] | 18-31% | 45 | 80 | greatly reduced | 31 | 72 |  |  | 
2 | wild-type lysozyme: hen egg white lysozyme reconstituted as received, unmodified |  |  |  |  |  |  | ~20 | 16 | no activity remained
